Source: patent publication US9914722B2, “Compounds for treating spinal muscular atrophy” (PTC Therapeutics Inc., priority 2012, dated 2018)

Assays:
[1] = test system: full length SMN2 minigene mRNA containing SMN2 exon 7 (SMN2-A minigene); assay: SMN2 minigene mRNA splicing RT-qPCR assay in cultured cells; assay type: cell-based, human; conditions: Homo sapiens, HEK293-H; HEK293H cells stably transfected with SMN2-A minigene, 24 hours, 7-point concentration curve; concentration giving 1.5-fold SMN2 full length mRNA vs vehicle; read-out: EC1.5x for production of full length SMN2 mRNA
Outline: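 HEK293H cells stably carrying the SMN2-A minigene were treated 24 h at 37 °C with a 7-point, 3.16-fold test compound series, in duplicate. Multiplex RT-qPCR measured exon 7-containing minigene FL mRNA, normalized to GAPDH and expressed relative to vehicle; EC1.5x is the concentration giving 1.5-fold FL mRNA.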

[2] = test system: Smn protein; assay: Smn protein assay (Smn HTRF) in cultured cells; assay type: cell-based, human; conditions: Homo sapiens, Fibroblast, GM03813 SMA Type 1 patient fibroblasts, 48 hours, HTRF; for maximal fold induction: 7-point concentration data, relative to vehicle, read-out: maximum fold (Fold) increase of Smn protein; for EC (1.5-fold): concentration producing 1.5 times Smn protein vs DMSO vehicle, read-out: EC1.5x for Smn protein expression
Outline: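 SMA patient fibroblasts (5,000/well) were exposed to a 7-point, 3.16-fold compound dilution series for 48 hours at 37° C, in triplicate. Lysates were read by HTRF with anti-SMN d2/kryptate at 665/620 nm. Blank-corrected signal was expressed as fold over DMSO vehicle, giving the EC1.5x and the maximum fold increase.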

Row | Compound | melting point [°C] | EC (1.5-fold) [1] [µM] | maximal fold induction [2] | EC (1.5-fold) [2] [µM]
1 | CN1CCCN(c2ccc3oc(-c4cn5ccccc5n4)cc(=O)c3c2)CC1 [Cpd 19, 2-(imidazo[1,2-a]pyridin-2-yl)-6-(4-methyl-1,4-diazepan-1-yl)-4H-chromen-4-one] | 188 to 190 | 3 to 30 | > 1.65 | 1 to 3
2 | CCOc1ccc(-c2cc(=O)c3cc(N4CCN[C@@H](C)C4)ccc3o2)cc1 [Cpd 42, 2-(4-ethoxyphenyl)-6-[(3S)-3-methylpiperazin-1-yl]-4H-chromen-4-one] | 93 to 94 | 0.3 to 1 | 1.2 to 1.35 | –
3 | CCN1CCN(c2ccc3oc(-c4ccc(OC)c(OC)c4)cc(=O)c3c2)CC1 [Cpd 22, 2-(3,4-dimethoxyphenyl)-6-(4-ethylpiperazin-1-yl)-4H-chromen-4-one] | 188 to 190 | 0.3 to 1 | > 1.65 | 1 to 3
4 | COc1ccc(-c2cc(=O)c3cc(N4CCN(C)CC4)ccc3o2)cc1OC [Cpd 21, 2-(3,4-dimethoxyphenyl)-6-(4-methylpiperazin-1-yl)-4H-chromen-4-one] | 184 to 186 | 0.3 to 1 | > 1.65 | 1 to 3

Continued, in another order:

Row | melting point [°C] | Compound | EC (1.5-fold) [1] [µM] | maximal fold induction [2] | EC (1.5-fold) [2] [µM]
5 | 92 to 94 | CCOc1ccc(-c2cc(=O)c3cc(N4CCN[C@H](C)C4)ccc3o2)cc1 [Cpd 44, 2-(4-ethoxyphenyl)-6-[(3R)-3-methylpiperazin-1-yl]-4H-chromen-4-one] | 1 to 3 | ≤ 1.2 | –
6 | 166 to 168 | C[C@@H]1CN(c2ccc3oc(-c4ccccn4)cc(=O)c3c2)C[C@H](C)N1 [Cpd 13, 6-[(3R,5S)-3,5-dimethylpiperazin-1-yl]-2-(pyridin-2-yl)-4H-chromen-4-one] | 1 to 3 | 1.35 to 1.5 | –
